From publication PMC7934687 (Vaccine, 2021)
Read-outs that look alike come from different tables or passages of the source.

Assays:
Assay type in all cases: binding
HLA-A*02:01 = HLA-A*02:01 (Homo sapiens, UniProt P04439, D140Y/D185E/D98H/E176V/E277Q/G131W/G231S/I119V/I121R/I166T/I218V/L300P/L318F/N151K/N90K/P208A/P217A/Q86G/Q94H/R138H/R169H/T345S)
HLA-DRB1*01:01 = HLA-DRB1*01:01 (Homo sapiens, UniProt P01903+P01911, A100R/D57E/F55L/F60I/F76Y/I96L/L162R/M171V/P40L/Q125E/R42F/V115G/Y59C); conditions: reference peptide, short 15 amino acid form
HLA-DRB1*15:01 = HLA-DRB1*15:01 (Homo sapiens, UniProt P01903+P01911); conditions: reference peptide, short 15 amino acid form

## YLYALVYFL
HLA-A*02:01; […], exiting peptide removed
  Practical Exchange rate: 85%

## ISDEFSSNV
HLA-A*02:01; […], exiting peptide removed
  Practical Exchange rate: 93.5%

## PVSKMRMATPLLMQA [CLIP]
HLA-DRB1*01:01
  interaction with recombinant HLA-DRB1*01:01: interacts strongly
HLA-DRB1*15:01
  interaction with recombinant HLA-DRB1*15:01: interacts strongly

## SVLLFLAFV
HLA-A*02:01
  Practical Exchange rate: 57.5%
